# Data published in patent US7807648B2, “G-rich polynucleotides for the treatment of Huntington's Disease” (University of Delaware, priority 2005, dated 2010).
# Entries after “also recorded” stand apart in the source; their conditions may differ.
# What was measured:
# GST-Q58-Htn = biological target: T1, GST-Q58-Htn (Homo sapiens, UniProt P42858, INS38QQQQQQQQQQQQQQQQQQQQQQQQQQQQQQQQQQQQQ); test: Biochemical/immunoblotting filter assay of mutant Htt fragment aggregation; conditions: for inhibitory activity on aggregation (overall statement): concentration not given, 0.5-60 μM tested; for inhibitory activity on aggregation (overall statement) / inhibition of aggregate formation: 24 h; for inhibition of Htt aggregation: 1-5 μM concentrations, dose curve FIG. 4; for inhibition of aggregate formation: ODN at 20 μM or 40 μM, FIG. 5/6; for reproducible inhibitory activity: biochemical assay
# T1 construct: this fragment consists of the amino terminal 171 amino acids with a tract of 58 glutamine residues fused to GST; GST (N, cleaved yes)
# T1 sequence (P42858 with tags, fused parts or gaps with the stated changes limits assumed): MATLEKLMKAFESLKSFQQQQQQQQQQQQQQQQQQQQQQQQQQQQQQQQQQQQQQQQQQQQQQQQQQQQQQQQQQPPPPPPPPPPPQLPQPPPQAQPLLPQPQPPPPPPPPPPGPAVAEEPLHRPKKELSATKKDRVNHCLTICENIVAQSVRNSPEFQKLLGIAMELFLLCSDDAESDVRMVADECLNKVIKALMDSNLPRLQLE
# polyQ aggregates = conditions: cited from earlier work; for inhibition of the aggregation process: R6/2 mouse model; for toxicity: mouse, in vivo
# [1] = tested on: Httexon1-eGFP fusion protein aggregation in HEK293 cells; test: Aggregate formation (green fluorescent foci) in HEK293 cells transfected with p72Q, microscopy; type: cell-based, human; conditions: for reproducible inhibitory activity: cell-based assay; for inhibition of aggregate formation (number of green fluorescent foci): 150-750 nM
# [2] = tested on: aggregated Htt-eGFP in HEK293 cells; test: FACS analysis of aggregation in HEK293 cells transfected with p72Q; type: cell-based, human; conditions: 1 μM and 2.5 μM, 48 hours, FIG. 13
# [3] = co-transfected with p72Q, 48 hours
compound,measurement,setting,value
"5′-GGTGGTGGTGGTTGTGGTGGTGGTGG-3′ (DNA GGTGGTGGTGGTTGTGGTGGTGGTGG; listed as DNA, chemistry not given here) [GRO26B]",inhibitory activity on aggregation (overall statement),GST-Q58-Htn,inhibit Huntington aggregation
Oc1c(I)cc(Cl)c2cccnc12 [Clioquinol],inhibition of the aggregation process,polyQ aggregates,inhibit the aggregation process
same,toxicity,polyQ aggregates,neurotoxicity
5′-TTTGGTGGTGGTGGTTGTGGTGGTGGTGG-3′ [GRO29A],inhibitory activity on aggregation (overall statement),GST-Q58-Htn,inhibit Huntington aggregation
"HDA: 20-mer with all As (DNA AAAAAAAAAAAAAAAAAAAA; listed as DNA, chemistry not given here)",reproducible inhibitory activity,[1],None
same,inhibition of aggregate formation (number of green fluorescent foci),[1]; [3],little effect on the number of aggregates; also recorded: does not appear to inhibit aggregate formation
same,inhibition of Htt aggregation,GST-Q58-Htn,unable to detect any Htt aggregate inhibition
same,inhibition of aggregate formation,GST-Q58-Htn,unable to inhibit aggregate formation; also recorded: no inhibition of aggregation was observed
same,reproducible inhibitory activity,GST-Q58-Htn,None
same,peak of high intensity eGFP (aggregates),[2],little detectable change; also recorded: no significant reduction in aggregates
5′-GGGGGTGGGGGTGGGGTGGGGGT-3′ [T40216],inhibitory activity on aggregation (overall statement),GST-Q58-Htn,effective inhibitors of aggregation; also recorded: capable of inhibiting GST-Q58-Htn aggregation
5′-GGGTGGGTGGGTGGGT-3′ [T30923],inhibition of aggregate formation (number of green fluorescent foci),[1]; [3],could not fully substitute for HDG
same,dose response of aggregation inhibition,GST-Q58-Htn,dose response visible
same,inhibitory activity on aggregation (overall statement),GST-Q58-Htn,effective inhibitors of aggregation; also recorded: capable of inhibiting GST-Q58-Htn aggregation
Nc1c(/N=N/c2ccc(-c3ccc(/N=N/c4cc(S(=O)(=O)O)c5ccccc5c4N)cc3)cc2)cc(S(=O)(=O)O)c2ccccc12 [Congo Red],reduction of green fluorescent foci,"[1]; Congo Red added concurrently with p72Q (0.2 μM or 1 μM), higher dosage, FIG. 8",significant reduction
same,inhibition of aggregate formation (number of green fluorescent foci),[1]; [3],displayed effects similar to HDG
same,inhibition of aggregate formation,"[1]; lower dosage of Congo Red (0.2 μM or 1 μM), FIG. 8",only partially inhibited
same,inhibition of the aggregation process,polyQ aggregates,inhibit the aggregation process
same,toxicity,polyQ aggregates,neurotoxicity
"HDG 20/2: HDG 20-mer wherein every other G was substituted with a T residue (DNA GTGTGTGTGTGTGTGTGTGT; listed as DNA, chemistry not given here)",activity of HDG variants with T residues inserted,"[1]; co-transfected with p72Q, 48 hours, FIG. 11",None of these molecules were found to be effective inhibitors of aggregation; also recorded: reduced significantly; also recorded: low level of activity
HDT: 20-mer with all T's (DNA TTTTTTTTTTTTTTTTTTTT),reproducible inhibitory activity,[1],None
same,inhibition of Htt aggregation,GST-Q58-Htn,unable to detect any Htt aggregate inhibition
same,inhibition of aggregate formation,GST-Q58-Htn,unable to inhibit aggregate formation; also recorded: no inhibition of aggregation was observed
same,reproducible inhibitory activity,GST-Q58-Htn,None
